Tests used:
[1] = target: T1, human histamine H1 receptor (Homo sapiens, UniProt P35367); assay: [3H]Pyrilamine radioligand binding, CHO-K1 cells stably expressing hH1R; conditions: for Selectivity Ki (H1R)/Ki (H3R): hH3R over hH1R
T1 construct: expressed in transfected cells; host or cells: CHO-K1
Method: (§1) Radioligand binding studies, using CHO-K1 cells stably expressing the H1R or Sf9 cells transiently expressing the H4R were performed as described previously. [^3H]Pyrilamine (H1R) and [^3H]histamine (H4R) were used as radiolignads. Affinities were determined using at least five different concentrations of tested compounds in triplicate independent experiments.

[2] = target: T2, human histamine H4 receptor (Homo sapiens, UniProt Q9H3N8); assay: [3H]Histamine radioligand binding, Sf9 cells transiently expressing hH4R; conditions: for Selectivity Ki (H4R)/Ki (H3R): hH3R over hH4R
T2 construct: expressed in transfected cells; host or cells: Sf9
T2 sequence (Q9H3N8 whole entry): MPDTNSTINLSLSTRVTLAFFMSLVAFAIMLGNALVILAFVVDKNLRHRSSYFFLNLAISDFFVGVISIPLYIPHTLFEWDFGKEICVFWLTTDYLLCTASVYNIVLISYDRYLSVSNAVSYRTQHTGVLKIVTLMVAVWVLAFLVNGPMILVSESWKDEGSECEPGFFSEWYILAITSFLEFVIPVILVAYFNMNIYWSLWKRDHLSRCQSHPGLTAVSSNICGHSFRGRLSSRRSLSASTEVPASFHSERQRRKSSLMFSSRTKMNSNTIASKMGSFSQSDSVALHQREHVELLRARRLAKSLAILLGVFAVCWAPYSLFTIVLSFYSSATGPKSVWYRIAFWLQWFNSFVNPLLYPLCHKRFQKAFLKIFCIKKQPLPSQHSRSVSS
Method: as §1

BV-2 cells [3] = assay: MTS cell viability assay; assay type: cell-based, murine; conditions: Mus musculus, 24 h exposure, mean ± SD, read-out: IC50 (inhibition of cell viability)
Method: The murine microglial BV-2 cell line was purchased from the Interlab Cell Line Collection (ICLC) cell bank (Genova, Italy). The BV-2 cells were cultured in DMEM/F12 medium (Lonza, BioWhittaker, Walkersville, MD USA, 12-719F) containing 10% of heat-inactivated fetal bovine serum (FBS, Gibco, 10,500–064) in a humidified incubator containing 95% air and 5% CO2 at 37 °C. BV-2 cells were used for experiments at passages 3 to 11. In all experiments, the concentration of FBS was reduced to 5%.
BV-2 cells (2 × 10^4 cells/100 μl/well) were cultured in transparent 96-well plates (TPP, Trasadingen, Switzerland) in DMEM/F12 supplemented with 5% FBS in the presence of dimethylsulfoxide (DMSO ≤ 0.1%, vehicle control, Veh) or increasing doses of tested compounds (0.78 × 10^–6 – 50 × 10^–6 M). Compound treatment was performed for 24 h. After the incubation time, cell viability was examined using an MTS-based [3-(4,5-dimethylthiazol-2-yl)-5-(3-carboxymethoxyphenyl)-2-(4-sulfophenyl)-2 H tetrazolium] CellTiter96® AQueous One Solution Cell Proliferation Assay (Promega, Madison, USA) following the manufacturer’s protocol. Briefly, 20 μl of MTS solution was pipetted into each well containing 100 μl of culture or culture medium without cells (blank control), mixed well and incubated at 37 °C for 55 min. After the appropriate time, the absorbance was measured at 490 nm using the EnSpire microplate reader (PerkinElmer, Massachusetts, USA). IC50 values were calculated with non-linear regression fit to a sigmoidal dose–response curve (log of compound concentration versus normalized response) using GraphPad Prism (v. 4.0.3).
(§2) To establish an experimental model of neuroinflammation in vitro, BV-2 cells were cultured in a 96-well plate (2 × 10^4 cells/200 μl/per well) and a 24-well plate (15 × 10^4 cells/500 μl/well) for the MTS assay and the Griess assay or the RT-qPCR experiment, respectively. BV-2 cells were treated for 24 h, 45 h and 69 h with the increasing concentration of LPS (Sigma-Aldrich, Saint Louis, MO, USA, L4391): 0.001; 0.01; 0.1; 1 [μg/ml]. Following LPS stimulation, at each time point, 100 μl of culture medium from each sample was transferred to another plate and mixed with an equal volume of Griess reagent. Simultaneously, on the plate with cells, cell viability was assessed by adding 20 μl of MTS reagent. The cells cultured on a 24-well plate were used for assessing the expression levels of proinflammatory cytokines (IL-1β, IL-6, TNF-α) by RT-qPCR.
To avoid the toxic effect of H3R ligands in subsequent studies, an MTS assay was performed to investigate cell viability. BV-2 cells were cultured for 24 h in the presence of an increasing concentration of compounds E243 and IIIa–IIIc (twofold dilutions covered the range from 0.78 × 10^–6 to 50 × 10^–6 M). […]

BV-2 cells [4] = assay: Griess assay (NO/nitrite level) in LPS-treated BV-2 cells; assay type: cell-based, murine; conditions: 6.25 μM, 1 h pretreatment, then 1 μg/ml LPS for 24 h
Method: The Griess assay is a colorimetric assay to measure the levels of nitrite (NO2^−) which is one of the primary and stable metabolites of NO. Griess reagent (Sigma-Aldrich, Saint Louis, MO, USA, G4410) was freshly prepared according to the manufacturer's instructions, that is, 1 g was dissolved in ultrapure water and mixed by inversion for about 4 min. For measuring nitric oxide, after an appropriate incubation time, 100 μl of culture medium was transferred to a transparent 96-well plate and mixed with the same volume of Griess reagent. The plate was incubated for 15 min at room temperature and the absorbance was read at 540 nm using the EnSpire microplate reader (PerkinElmer, Massachusetts, USA). Data were analysed by direct comparison based on the average absorbance of LPS treatment, compound treatment or co-treatment with LPS, performed by normalizing treated cells (compound alone or co-treatment with LPS) to LPS-treated cells set as 100%.
as §2
Fig. 6 The effect of the compounds tested (E243 and IIIa–IIIc) on nitric oxide (NO) production in BV-2 cells assessed by the Griess assay. BV-2 cells were pretreated for 1 h with indicated compounds at the concentration of 6.25 μM, followed by stimulation with 1 μg/ml LPS for 24 h. Data are expressed as mean ± SEM of two independent experiments, each of which consisted of eight replicates per treatment group and is expressed as a percentage of NO production versus cells treated with LPS (set at 100%). […] Data indicated with ***p < 0.001 (versus vehicle-treated cells) reflect statistically significant differences between the control and experimental groups

human AChE = system: human AChE; set-up: method as in PMID 31669851; conditions: cited from earlier work
electric eel AChE = system: electric eel AChE; set-up: method as in PMID 31669851; conditions: cited from earlier work
equine BuChE = system: equine BuChE; set-up: method as in PMID 31669851; conditions: cited from earlier work
[5] = system: neuroblastoma SH-SY5Y cells; conditions: 1 µM, 24 h pre-treatment; H2O2 (300 μM) and okadaic acid (50 nM); ref 2nd International Conference on Neuroprotection by Drugs, Nutraceuticals and Physical Activity, 9–10 Dec 2021; cited from earlier work
human H3 receptor = target: T3, human H3 receptor (Homo sapiens, UniProt Q9Y5N1); assay: [3H]Nα-methylhistamine radioligand binding, CHO-K1 cells stably expressing hH3R
T3 construct: expressed in transfected cells; host or cells: CHO-K1
T3 sequence (Q9Y5N1 whole entry): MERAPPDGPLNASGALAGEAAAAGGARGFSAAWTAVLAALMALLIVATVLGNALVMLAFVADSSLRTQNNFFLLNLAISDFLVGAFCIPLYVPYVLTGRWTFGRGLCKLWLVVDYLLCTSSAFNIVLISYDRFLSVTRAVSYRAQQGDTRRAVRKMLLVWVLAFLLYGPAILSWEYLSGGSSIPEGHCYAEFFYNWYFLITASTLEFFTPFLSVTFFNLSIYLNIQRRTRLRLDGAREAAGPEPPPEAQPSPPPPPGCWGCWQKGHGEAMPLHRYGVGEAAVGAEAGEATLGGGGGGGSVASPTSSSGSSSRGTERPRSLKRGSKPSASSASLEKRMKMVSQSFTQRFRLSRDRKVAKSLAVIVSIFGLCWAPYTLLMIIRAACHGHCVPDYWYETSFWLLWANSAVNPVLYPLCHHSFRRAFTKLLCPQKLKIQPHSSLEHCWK
Method: Radioligand binding studies were conducted using CHO-K1 cells stably transfected with the human H3 receptor as we described previously. All assays were carried out in duplicates. [^3H]-N-α-methylhistamine was used as radioligand and (R)(-)-α-methylhistamine was used to define nonspecific binding. Radioactivity was counted in MicroBeta2 scintillation counter (PerkinElmer). Data were fitted to a one-site curve-fitting equation with Prism 6 (GraphPad Software) and Ki values were estimated from the Cheng − Prusoff equation.
Compounds IIIa–IIIc were tested for affinity for human H3R (hH3R) in a radioligand binding assay with N^α-methylhistamine as a radioligand in CHO K1 cells stably expressing hH3R. Results are presented as Ki values with SEM (Table 2). […] However, it is still a very active compound. The affinity for hH3R (stably expressed in HEK293 cells) of compound E243 was recently described.

BV-2 cells [6] = assay: ELISA of pro-inflammatory cytokines released by LPS-activated BV-2 cells; assay type: cell-based, murine; conditions: for Inhibitory activity on pro-inflammatory cytokine production: LPS-stimulated BV-2 cells, data not shown
Method: The concentrations of IL-1β, IL-6, TNF-α, the main inflammatory cytokines, were analysed using commercial ELISA kits (IL-6 ELISA kit, ADI-900–045, TNF-α ELISA kit, ADI-900–047, Enzo, Mouse IL-1 beta ELISA kit, Invitrogen) according to the manufacturer’s instructions. Briefly, at the end of 24 h of incubation with tested compounds, cell culture plates were centrifuged to remove cell debris from the supernatants. Culture medium was collected in Eppendorf tubes and frozen at −80 °C until further analysis.
Fig. 8 Effect of compound IIIc on the production of proinflammatory cytokines by LPS-activated BV-2 cells.

BV-2 cells [7] = assay: RT-qPCR of pro-inflammatory cytokine mRNA in LPS-activated BV-2 cells; conditions: 6.25 μM, 1 h pretreatment, LPS 1 μg/ml 24 h; on average
[8] = 6.25 μM, 1 h pretreatment, LPS 1 μg/ml 24 h

T1 sequence (P35367 whole entry): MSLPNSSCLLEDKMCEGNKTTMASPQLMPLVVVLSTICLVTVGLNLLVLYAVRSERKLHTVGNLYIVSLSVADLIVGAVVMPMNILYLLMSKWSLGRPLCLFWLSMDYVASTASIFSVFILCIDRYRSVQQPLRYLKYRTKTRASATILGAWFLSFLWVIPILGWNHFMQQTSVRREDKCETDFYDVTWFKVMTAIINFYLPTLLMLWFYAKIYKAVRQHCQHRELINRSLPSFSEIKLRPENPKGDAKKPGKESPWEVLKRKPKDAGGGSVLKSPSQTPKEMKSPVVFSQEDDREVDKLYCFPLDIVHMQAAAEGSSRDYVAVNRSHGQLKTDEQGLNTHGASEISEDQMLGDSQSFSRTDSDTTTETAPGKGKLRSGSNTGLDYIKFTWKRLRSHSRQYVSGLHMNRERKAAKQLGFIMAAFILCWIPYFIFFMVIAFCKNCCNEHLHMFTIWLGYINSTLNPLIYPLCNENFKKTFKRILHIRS

Structure (SMILES) | Ki [1] [nM] | Selectivity Ki (H1R)/Ki (H3R) [1] | Ki [2] [nM] | Selectivity Ki (H4R)/Ki (H3R) [2] | IC50 (BV-2 cells [3]) [nM] | Reduction of NO level compared to LPS treated cells (BV-2 cells [4]) [%] | IC50 (human AChE) [nM] | IC50 (electric eel AChE) [nM] | IC50 (equine BuChE) [nM] | Prevention of ROS production, times compared to neurotoxin-treated cells [5] [times] | Ki (human H3 receptor) [nM] | Inhibitory activity on pro-inflammatory cytokine production (BV-2 cells [6]) | melting point [°C] | Release of IL-1β compared to LPS-stimulated BV-2 cells (BV-2 cells [6]; [8]) | Release of IL-6 compared to LPS-stimulated BV-2 cells (BV-2 cells [6]; [8]) | Release of TNF-α compared to LPS-stimulated BV-2 cells (BV-2 cells [6]; [8]) | IL-1β mRNA level, times lower than induced by LPS alone (BV-2 cells [7]) [times] | TNF-α mRNA level, times lower than induced by LPS alone (BV-2 cells [7]) [times]
Cc1ccc2oc(-c3ccc(OCCCCCCN4CCCCC4)cc3)cc(=O)c2c1 [Compound E243] | 1310 ± 128 | > 5 | 4440 | > 19 | 53500 ± 5560 | ~30 | 360 | 501 | 758 | ~2 | – | – | – | – | – | – | – | –
COc1ccc(/C=C/C(=O)c2ccc(OCCCN3CCCCC3)cc2)cc1.Cl [IIIa, (E)-3-(4-Methoxyphenyl)-1-(4-(3-(piperidin-1-yl)propoxy)phenyl)prop-2-en-1-one hydrogen chloride] | – | – | – | – | 21200 ± 1980 | ~30 | – | – | – | – | 14 ± 0.2 | have not shown inhibitory activity | 174 to 177 | – | – | – | – | –
COc1ccc(/C=C/C(=O)c2ccc(OCCCN3CCCCC3)cc2)cc1OC.Cl [IIIb, (E)-3-(3,4-Dimethoxyphenyl)-1-(4-(3-(piperidin-1-yl)propoxy)phenyl)prop-2-en-1-one hydrogen chloride] | 1080 | > 112 | 12500 | > 1300 | 26700 ± 3480 | ~30 | – | – | – | – | 9.6 ± 0.2 | have not shown inhibitory activity | 173 to 176 | – | – | – | – | –
COc1cc(/C=C/C(=O)c2ccc(OCCCN3CCCCC3)cc2)cc(OC)c1OC.Cl [IIIc, (E)-3-(3,4,5-Trimethoxyphenyl)-1-(4-(3-(piperidin-1-yl)propoxy)phenyl)prop-2-en-1-one hydrogen chloride] | 2700 | > 112 | 2820 | > 117 | 11300 ± 3260 | 61 | – | – | – | – | 24 ± 1.1 | – | – | significantly lower | significantly lower | significantly lower | ~2 | ~3

Reference: PMC9925557, “Anti-inflammatory effects of new human histamine H3 receptor ligands with flavonoid structure on BV-2 neuroinflammation” (Inflammation Research, 2022)
